Key:
[1] = target: soluble human BACE-1 catalytic domain (Homo sapiens (Human), UniProt P56817); assay: BACE-1 Ki Assay (BACE-1 HTRF FRET Assay); format: biochemical; settings: Assay 1; Ki calculated from IC50 by Cheng-Prusoff
Summary of the method: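 Recombinant human BACE-1 catalytic domain (3 nM in 10 μl) preincubated with inhibitor 30 min at 30° C, pH 5.0 acetate buffer with 7.5% DMSO, then 200 nM final QSY7-APPswe-Eu substrate for 1.5 h; 620 nm time-resolved fluorescence read. IC50 from nonlinear regression converted to Ki by Cheng-Prusoff using Km 8 μM.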

[2] = target: purified human Cathepsin-D (Homo sapiens (Human), UniProt P07339); assay: Cathepsin-D Assay (time-resolved FRET); format: biochemical; settings: Assay 4; Ki calculated from IC50 by Cheng-Prusoff;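 also: Europium-labelled peptide substrate with QSY7 quencher, cleavage read as 620 nm fluorescence after 30 min preincubation then 30 min reaction at 30 °C, pH 5.0, inhibition lowers signal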
Experimental: Assay 4: Cathepsin-D Assay
This substrate contains an C-terminal QSY7 moiety that serves as a quencher of the N-terminal Europium fluorophore (620 nm Em). In the absence of enzyme activity, 620 nm fluorescence is low in the assay and increased linearly over 1 hour in the presence of uninhibited Cathepsin-D enzyme. Inhibition of Cathespin D cleavage of the Eu-Aspartyl Protease-QSY7 substrate by inhibitors is manifested as a suppression of 620 nm fluorescence.
Varying concentrations of inhibitors in a volume of 100 nl are preincubated with purified human Cathepsin-D (0.1 nM in 10 μl) for 30 minutes at 30° C. in reaction buffer containing 100 mM Na-Acetate pH 5.0, and 0.02% Brij-35. Reactions are initiated by addition of 10 μl of 100 nM Eu-Aspartyl Protease-QSY7 substrate (50 nM final) to give a final reaction volume of 20 μl in a 384 well Nunc HTRF plate. The reactions are incubated at 30° C. for 30 minutes. The 620 nm fluorescence is then read on a Envision Multilabel plate reader (Perkin-Elmer) using a 200 microsecond delay followed by a 400 microsecond acquisition time window. Inhibitor IC50 values are derived from non-linear regression analysis of concentration response curves.

[3] = target: BACE-1 (Homo sapiens (Human), UniProt P56817); assay: BACE-1 Cellular Assay (Aβ in HEK293-APPswe/lon cells); format: cell-based; settings: 4 hours
Summary of the method: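 HEK293 cells stably expressing human APP with Swedish and London FAD mutations, cultured at 37° C., 5% CO2. Aβ40 or Aβ42 in conditioned media measured by electrochemiluminescent ELISA (WO2 capture; G2-10 or G2-11 detection). IC50 from variable-slope sigmoidal fit of signal versus compound concentration.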

BACE-1, sequence (P56817 46-501): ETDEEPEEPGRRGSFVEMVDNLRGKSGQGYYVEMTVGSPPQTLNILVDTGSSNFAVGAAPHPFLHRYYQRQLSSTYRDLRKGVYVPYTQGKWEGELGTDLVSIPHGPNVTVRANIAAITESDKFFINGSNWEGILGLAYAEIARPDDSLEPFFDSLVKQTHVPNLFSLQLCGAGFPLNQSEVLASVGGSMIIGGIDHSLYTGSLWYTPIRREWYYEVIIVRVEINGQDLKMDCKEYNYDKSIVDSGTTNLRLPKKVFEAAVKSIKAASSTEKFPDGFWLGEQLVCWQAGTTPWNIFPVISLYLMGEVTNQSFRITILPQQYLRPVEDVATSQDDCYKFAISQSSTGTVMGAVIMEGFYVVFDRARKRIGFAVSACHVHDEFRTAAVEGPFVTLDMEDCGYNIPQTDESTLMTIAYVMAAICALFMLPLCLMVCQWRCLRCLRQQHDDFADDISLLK
purified human Cathepsin-D, sequence (P07339 65-412): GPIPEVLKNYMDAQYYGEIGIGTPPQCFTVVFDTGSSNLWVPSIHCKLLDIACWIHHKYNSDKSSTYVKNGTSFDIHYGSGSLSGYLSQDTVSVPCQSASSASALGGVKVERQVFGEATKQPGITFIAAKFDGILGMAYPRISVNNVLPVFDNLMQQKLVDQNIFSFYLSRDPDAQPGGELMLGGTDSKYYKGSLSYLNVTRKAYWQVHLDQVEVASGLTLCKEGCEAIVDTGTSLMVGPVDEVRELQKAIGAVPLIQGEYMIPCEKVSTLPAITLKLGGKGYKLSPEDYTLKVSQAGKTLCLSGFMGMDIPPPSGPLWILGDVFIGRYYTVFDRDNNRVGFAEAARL
soluble human BACE-1 catalytic domain, sequence (P56817 75-416): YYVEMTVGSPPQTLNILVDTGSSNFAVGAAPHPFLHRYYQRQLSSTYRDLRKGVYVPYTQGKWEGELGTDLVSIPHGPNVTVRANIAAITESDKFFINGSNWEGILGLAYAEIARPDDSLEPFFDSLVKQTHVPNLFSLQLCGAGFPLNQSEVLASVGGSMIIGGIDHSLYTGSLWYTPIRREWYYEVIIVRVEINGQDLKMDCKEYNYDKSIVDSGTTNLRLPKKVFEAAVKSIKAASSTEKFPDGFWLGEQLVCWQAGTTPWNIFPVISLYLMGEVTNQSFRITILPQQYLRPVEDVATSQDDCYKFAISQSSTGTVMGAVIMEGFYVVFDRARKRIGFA

SMILES	Ki [1] [µM]	Ki [2] [nM]	IC50 [3] [nM]
COc1cnc2c(Nc3ccc(F)c([C@]4(C)CS(=O)(=O)C(C)(C)C(N)=N4)c3)nccc2n1 [Ex 47 of WO2014059185, reference compound]	0.0033	–	–
C[C@@]1(c2nc(Nc3nccc4cc(C#N)cnc34)ncc2F)CS(=O)(=O)[C@@](C)(C2CC2)C(N)=N1 [Example 5, 8-({4-[(3R,6S)-6-cyclopropyl-5-imino-3,6-dimethyl-1,1-dioxidothiomorpholin-3-yl]-5-fluoropyrimidin-2-yl}amino)-1,7-naphthyridine-3-carbonitrile]	0.0087	710	10
COc1cnc2c(Nc3cc([C@]4(C)CS(=O)(=O)[C@@](C)(C5CC5)C(N)=N4)c(F)cn3)nccc2c1 [Example 6, N-{4-[(3R,6S)-6-cyclopropyl-5-imino-3,6-dimethyl-1,1-dioxidothiomorpholin-3-yl]-5-fluoropyridin-2-yl}-3-methoxy-1,7-naphthyridin-8-amine]	0.0026	> 9400	3
COc1cnc2c(Nc3ccc(F)c([C@]4(C)CS(=O)(=O)[C@@](C)(C5CC5)C(N)=N4)c3)nccc2c1 [Example 14, N-{3-[(3R,6S)-6-cyclopropyl-5-imino-3,6-dimethyl-1,1-dioxidothiomorpholin-3-yl]-4-fluorophenyl}-3-methoxy-1,7-naphthyridin-8-amine]	0.0093	1650	21
C[C@@]1(c2cc(Nc3ncnc4cc(C#N)cnc34)ccc2F)CS(=O)(=O)[C@@](C)(C2CC2)C(N)=N1 [Example 16, 4-({3-[(3R,6S)-6-cyclopropyl-5-imino-3,6-dimethyl-1,1-dioxidothiomorpholin-3-yl]-4-fluorophenyl}amino)pyrido[3,2-d]pyrimidine-7-carbonitrile]	0.0022	2450	2.6
C[C@@]1(c2cc(Nc3nccc4cc(C#N)cnc34)ccc2F)CS(=O)(=O)[C@@](C)(C2CC2)C(N)=N1 [Example 18, 8-({3-[(3R,6S)-6-cyclopropyl-5-imino-3,6-dimethyl-1,1-dioxidothiomorpholin-3-yl]-4-fluorophenyl}amino)-1,7-naphthyridine-3-carbonitrile]	0.0016	651	4.8
COc1cnc2c(Nc3ccc(F)c([C@]4(C)CS(=O)(=O)[C@@](C)(C5CC5)C(N)=N4)c3)ncnc2n1 [Example 22, (2S,5R)-2-cyclopropyl-5-(2-fluoro-5-((7-methoxypteridin-4-yl)amino)phenyl)-3-imino-2,5-dimethylthiomorpholine 1,1-dioxide]	0.014	> 9400	15
CC1(C)C(=N)N[C@](C)(c2cc(Nc3noc4cc(F)cnc34)ccc2F)CS1(=O)=O [WO′426 Ex. 30b, reference compound]	0.0192	–	82

Reference: patent US9732088B2, “C2-carbocyclic iminothiazine dioxides as BACE inhibitors, compositions, and their use” (Merck Sharp & Dohme Corp., priority 2014, dated 2017)
